Values quoted from earlier work, collected in patent US20050084507A1, “Liquid preparations and surfactant/solvent systems” (priority 1999, published 2005).
Values after ≈ are worked out from the molar mass of the structure shown.

CCOC1Oc2ccc(OS(C)(=O)=O)cc2C1(C)C (stereo not shown) [ethofumesate]
solubility in water: 50 µg/mL (≈ 175 µM)
